# Reference: US6559164B1, “Substituted pyrroles suitable for continuous infusion” (Hoffmann-La Roche Inc., priority 1999, dated 2003)
# Structures can show the parent of a compound that is named as a salt.
# What was measured:
# [1] = Plasma conversion (degradation in plasma to the active metabolite); format: in vitro ADME; conditions: human or rodent plasma at 37° C., percent degradation
# Method: “Plasma conversion” with respect to compounds of formula I means the degradation (enzymatic and/or non-enzymatic) of such compound in human or rodent plasma at 37° C. from 30 minutes to 6 hours to give 3-(1-methyl-3-indolyl)-4-(1-methyl-6-nitro-3-indolyl)-1H-pyrrole-2,5-dione, a pharmaceutically active metabolite of compounds of formula I, as well as pharmaceutically active metabolites thereof. This conversion is typically given as the percent degradation over a specified time frame.
# [2] = Stability in solution for intravenous administration (release of 3-(1-methyl-3-indolyl)-4-(1-methyl-6-nitro-3-indolyl)-1H-pyrrole-2,5-dione); format: physicochemical; conditions: 72 hours at room temperature in a mixture of acetonitrile and saline or dextrose water; parent pyrrole-2,5-dione detected
# Method: “Stability” is an overall assessment of the ability of a compound of formula I to withstand degradation in a typical solution used for the administration of drugs intravenously. Specifically, it refers to the ability of any given compound of formula I to release 3-(1-methyl-3-indolyl)-4-(1-methyl-6-nitro-3-indolyl)-1H-pyrrole-2,5-dione, over a 72 hour period in a mixture of acetonitrile and saline or dextrose water. The
# “stability” of a compound of formula I is “very good” if the less than 1% 3-(1-Methyl-3-indolyl)-4-(1-methyl-6-nitro-3-indolyl)-1H-pyrrole-2,5-dione is detected, “good” if less than 2.5% 3-(1-Methyl-3-indolyl)-4-(1-methyl-6-nitro-3-indolyl)-1H-pyrrole-2,5-dione is detected, and “fair” if less than 5% 3-(1-Methyl-3-indolyl)-4-(1-methyl-6-nitro-3-indolyl)-1H-pyrrole-2,5-dione is detected after 72 hours incubation at room temperature.
Plasma Conversion ([1]; @ 30 min),Stability [2],Compound,other results
70% @ 30 min,Good,"Cn1cc(C2=C(c3cn(C)c4cc([N+](=O)[O-])ccc34)C(=O)N(COC(=O)Cc3cccnc3)C2=O)c2ccccc21 [Example 3d, pyridin-3-yl acetic acid 3-(1-methyl-1H-indol-3-yl)-4-(1-methyl-6-nitro-1H-indol-3-yl)-2,5-dioxo-2,5-dihydro-pyrrol-1-ylmethyl ester]",–
–,Good,"Cn1cc(C2=C(c3cn(C)c4cc([N+](=O)[O-])ccc34)C(=O)N(COC(=O)NCCOP(=O)(O)O)C2=O)c2ccccc21 [Example 20, (2-Phosphonooxy-ethyl)-carbamic Acid 3-(1-Methyl-1H-indol-3-yl)-4-(1-methyl-6-nitro-1H-indol-3-yl)-2,5-dioxo-2,5-dihydro-pyrrol-1-ylmethyl Ester]",–
30% @ 30 min,Good,"Cn1cc(C2=C(c3cn(C)c4cc([N+](=O)[O-])ccc34)C(=O)N(COC(=O)C3CCNCC3)C2=O)c2ccccc21 [Example 8a, piperidine-4-carboxylic acid 3-(1-methyl-1H-indol-3-yl)-4-(1-methyl-6-nitro-1H-indol-3-yl)-2,5-dioxo-2,5-dihydro-pyrrol-1-ylmethyl ester trifluoroacetate]",–
20% @ 30 min,Good,"Cn1cc(C2=C(c3cn(C)c4cc([N+](=O)[O-])ccc34)C(=O)N(COC(=O)CCC(=O)O)C2=O)c2ccccc21 [Example 3f, succinic acid mono-[3-(1-methyl-1H-indol-3-yl)-4-(1-methyl-6-nitro-1H-indol-3-yl)-2,5-dioxo-2,5-dihydro-pyrrol-1-ylmethyl] ester]",–
–,Fair,"Cn1cc(C2=C(c3cn(C)c4cc([N+](=O)[O-])ccc34)C(=O)N(COC(=O)COCCOCCOCCOCC(=O)O)C2=O)c2ccccc21 [Example 3h, [2-[2-(2-carboxymethoxy-ethoxy)-ethoxy]-ethoxy] acetic acid-3-(1-methyl-1H-indol-3-yl)-4-(1-methyl-6-nitro-1H-indol-3-yl)-2,5-dioxo-2,5-dihydro-pyrrol-1-ylmethyl ester]",–

# Second part, the compound before the results:
Compound,Plasma Conversion ([1]; @ 30 min),Stability [2],other results
"Cn1cc(C2=C(c3cn(C)c4cc([N+](=O)[O-])ccc34)C(=O)N(COC(=O)c3cccnc3)C2=O)c2ccccc21 [Example 3a, nicotinic acid 3-(1-methyl-1H-indol-3-yl)-4-(1-methyl-6-nitro-1H-indol-3-yl)-2,5-dioxo-2,5-dihydro-pyrrol-1-ylmethyl ester]",70% @ 30 min,Good,–
"Cn1cc(C2=C(c3cn(C)c4cc([N+](=O)[O-])ccc34)C(=O)N(COC(=O)c3ccc[n+](C)c3)C2=O)c2ccccc21 [Example 12, 1-Methyl-3-[3-(1-methyl-1H-indol-3-yl)-4-(1-methyl-6-nitro-1H-indol-3-yl)-2,5-dioxo-2,5-dihydro-pyrrol-1-ylmethoxycarbonyl]-pyridinium; Trifluoroacetate]",60% @ 30 min,Fair,–
"CCCCCCC=CCCCCCCCC(=O)OCN1C(=O)C(c2cn(C)c3ccccc23)=C(c2cn(C)c3cc([N+](=O)[O-])ccc23)C1=O [Example 3g, hexadec-9-enoic 3-(1-methyl-1H-indol-3-yl)-4-(1-methyl-6-nitro-1H-indol-3-yl)-2,5-dioxo-2,5-dihydro-pyrrol-1-ylmethyl ester]",–,Good,–
"[[3-(1-Methyl-1H-indol-3-yl)-4-(1-methyl-6-nitro-1H-indol-3-yl)-2,5-dioxo-2,5-dihydro-pyrrol-1-yl]methoxycarbonyl]-4-phenyl-O-methylpolyethylene Glycol 500 [Example 15]",–,Good,Plasma Conversion ([1]; @ 2 hrs): 100% @ 2 hrs
"Cn1cc(C2=C(c3cn(C)c4cc([N+](=O)[O-])ccc34)C(=O)N(C(=O)NCCCCOP(=O)([O-])[O-])C2=O)c2ccccc21.[Na+].[Na+] [Example 24, Phosphoric Acid Mono-(4-{[3-(1-methyl-1H-indol-3-yl)-4-(1-methyl-6-nitro-1H-indol-3-yl)-2,5-dioxo-2,5-dihydro-pyrrole-1-carbonyl]-amino}-butyl) Ester Sodium Salt]",–,Good,Plasma Conversion ([1]; @ 6 hrs): 10% @ 6 hrs
Cn1cc(C2=C(c3cn(C)c4cc([N+](=O)[O-])ccc34)C(=O)N(CO)C2=O)c2ccccc21,–,–,melting point: 209 to 211 °C
"CCN(CC)CCNC(=O)N1C(=O)C(c2cn(C)c3ccccc23)=C(c2cn(C)c3cc([N+](=O)[O-])ccc23)C1=O [Example 21, 3-(1-Methyl-1H-indol-3-yl)-4-(1-methyl-6-nitro-1H-indol-3-yl)-2,5-dioxo-2,5-dihydro-pyrrole-1-carboxylic Acid (2-Diethylamino-ethyl)-amide]",–,Fair,Plasma Conversion ([1]; @ 1 hr): 100% @ 1 hr
"Cn1cc(C2=C(c3cn(C)c4cc([N+](=O)[O-])ccc34)C(=O)N(COC(=O)Cc3ccncc3)C2=O)c2ccccc21 [Example 3c, pyridin-4-yl acetic acid 3-(1-methyl-1H-indol-3-yl)-4-(1-methyl-6-nitro-1H-indol-3-yl)-2,5-dioxo-2,5-dihydro-pyrrol-1-ylmethyl ester]",60% @ 30 min,Good,–
"Cn1cc(C2=C(c3cn(C)c4cc([N+](=O)[O-])ccc34)C(=O)N(COC(=O)c3ccc(OP(=O)(O)O)cc3)C2=O)c2ccccc21 [Example 14, 4-Phosphonooxy-benzoic Acid 3-(1-Methyl-1H-indol-3-yl)-4-(1-methyl-6-nitro-1H-indol-3-yl)-2,5-dioxo-2,5-dihydro-pyrrol-1-ylmethyl Ester Monosodium Salt]",–,Good,Plasma Conversion ([1]; @ 4 hrs): 5% @ 4 hrs
